Laboratory results published in ChEMBL document CHEMBL1147661, “The first potent inhibitor of mammalian group X secreted phospholipase A2: elucidation of sites for enhanced binding” (J Med Chem, 2006).

Key:
Phospholipase A2 [1] = target: Phospholipase A2 (Homo sapiens, UniProt P04054); experiment: Inhibition of human recombinant sPLA2 G1B
[2] = target: T1, Phospholipase A2, membrane associated (Mus musculus, UniProt P31482); experiment: Inhibition of mouse recombinant sPLA2 G2A
T1 sequence (P31482 whole entry): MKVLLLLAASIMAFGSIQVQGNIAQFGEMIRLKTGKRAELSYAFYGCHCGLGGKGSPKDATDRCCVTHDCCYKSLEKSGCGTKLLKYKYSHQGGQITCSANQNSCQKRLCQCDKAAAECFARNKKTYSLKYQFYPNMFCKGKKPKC

[3] = target: T2, Group 10 secretory phospholipase A2 (Mus musculus, UniProt Q9QXX3); experiment: Inhibition of mouse recombinant sPLA2 G10
T2 sequence (Q9QXX3 whole entry): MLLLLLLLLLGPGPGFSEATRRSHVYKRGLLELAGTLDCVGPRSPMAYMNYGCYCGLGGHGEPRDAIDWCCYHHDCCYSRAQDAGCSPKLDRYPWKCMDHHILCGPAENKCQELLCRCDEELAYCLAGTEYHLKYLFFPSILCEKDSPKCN

[4] = target: T3, Phospholipase A2, membrane associated (Homo sapiens, UniProt P14555); experiment: Inhibition of human recombinant sPLA2 G2A
T3 sequence (P14555 whole entry): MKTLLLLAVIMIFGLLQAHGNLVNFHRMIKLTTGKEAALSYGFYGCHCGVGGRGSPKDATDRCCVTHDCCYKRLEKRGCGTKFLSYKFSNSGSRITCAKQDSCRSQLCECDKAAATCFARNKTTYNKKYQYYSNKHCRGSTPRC

Phospholipase A2 [5] = target: Phospholipase A2 (Mus musculus, UniProt Q9Z0Y2); experiment: Inhibition of mouse recombinant sPLA2 G1B
Phospholipase A2 group V [6] = target: T4, Phospholipase A2 group V (Homo sapiens, UniProt P39877); experiment: Inhibition of human recombinant sPLA2 G5
T4 sequence (P39877 whole entry): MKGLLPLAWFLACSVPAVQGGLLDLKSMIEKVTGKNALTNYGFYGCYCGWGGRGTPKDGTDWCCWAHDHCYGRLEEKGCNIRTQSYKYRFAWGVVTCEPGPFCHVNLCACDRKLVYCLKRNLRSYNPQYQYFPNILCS

[7] = target: T5, Group 10 secretory phospholipase A2 (Homo sapiens, UniProt O15496); experiment: Inhibition of human recombinant sPLA2 G10
T5 sequence (O15496 whole entry): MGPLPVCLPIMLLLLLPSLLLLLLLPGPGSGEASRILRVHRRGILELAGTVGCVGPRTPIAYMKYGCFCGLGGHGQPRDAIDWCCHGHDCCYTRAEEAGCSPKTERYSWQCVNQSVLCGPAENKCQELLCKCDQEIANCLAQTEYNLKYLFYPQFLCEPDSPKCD

Phospholipase A2 group V [8] = target: T6, Phospholipase A2 group V (Mus musculus, UniProt P97391); experiment: Inhibition of mouse recombinant sPLA2 G5
T6 sequence (P97391 whole entry): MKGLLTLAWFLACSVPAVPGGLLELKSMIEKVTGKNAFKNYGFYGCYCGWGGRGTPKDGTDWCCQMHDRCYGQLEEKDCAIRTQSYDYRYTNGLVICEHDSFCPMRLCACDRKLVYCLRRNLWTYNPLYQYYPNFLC

[9] = target: T7, Group IIE secretory phospholipase A2 (Mus musculus, UniProt Q9QUL3); experiment: Inhibition of mouse recombinant sPLA2 G2E
T7 sequence (Q9QUL3 whole entry): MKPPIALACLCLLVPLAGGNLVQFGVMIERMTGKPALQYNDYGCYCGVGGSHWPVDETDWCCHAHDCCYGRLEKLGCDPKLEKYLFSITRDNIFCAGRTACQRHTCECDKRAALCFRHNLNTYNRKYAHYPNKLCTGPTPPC

[10] = target: T8, Group IIE secretory phospholipase A2 (Homo sapiens, UniProt Q9NZK7); experiment: Inhibition of human recombinant sPLA2 G2E
T8 sequence (Q9NZK7 whole entry): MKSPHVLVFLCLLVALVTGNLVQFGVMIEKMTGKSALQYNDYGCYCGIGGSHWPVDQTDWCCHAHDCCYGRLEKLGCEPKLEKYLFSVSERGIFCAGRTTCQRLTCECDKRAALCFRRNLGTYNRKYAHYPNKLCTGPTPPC

Sequence of Phospholipase A2 (Homo sapiens, UniProt P04054) (P04054 whole entry): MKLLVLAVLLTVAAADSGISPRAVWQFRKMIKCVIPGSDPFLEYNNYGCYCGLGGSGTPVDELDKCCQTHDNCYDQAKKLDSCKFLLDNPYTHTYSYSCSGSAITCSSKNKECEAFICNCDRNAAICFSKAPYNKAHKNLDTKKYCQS
Sequence of Phospholipase A2 (Mus musculus, UniProt Q9Z0Y2) (Q9Z0Y2 whole entry): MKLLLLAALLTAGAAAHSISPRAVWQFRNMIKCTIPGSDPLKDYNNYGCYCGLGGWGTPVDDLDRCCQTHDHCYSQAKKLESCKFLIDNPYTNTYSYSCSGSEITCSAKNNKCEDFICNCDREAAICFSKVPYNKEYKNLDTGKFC

| Structure (SMILES) | IC50 (Phospholipase A2 [1]) [nM] | IC50 [2] [nM] | IC50 [3] [nM] | IC50 [4] [nM] | IC50 (Phospholipase A2 [5]) [nM] | IC50 (Phospholipase A2 group V [6]) [nM] | IC50 [7] [nM] | IC50 (Phospholipase A2 group V [8]) [nM] | IC50 [9] [nM] | IC50 [10] [nM] |
| --- | --- | --- | --- | --- | --- | --- | --- | --- | --- | --- |
| Cc1c(C(=O)C(N)=O)c2c(OCC(=O)O)cccc2n1Cc1ccccc1 | 2500 | 125 | 2500 | 275 | 2200 | 800 | 2000 | 1000 | 400 | 75 |
| Cc1cc(OCC(=O)O)c2c(C(=O)C(N)=O)c(C)n(Cc3ccccc3)c2c1 | 2000 | 125 | 2500 | 300 | 2000 | 800 | 2200 | 850 | 400 | 125 |
| CCc1c(C(=O)C(N)=O)c2c(OCC(=O)O)cccc2n1Cc1ccccc1 [VARESPLADIB] | 750 | 70 | 75 |  | 140 | 500 |  | 750 | 75 | 50 |
| CCc1c(C(=O)C(N)=O)c2c(OCC(=O)O)cc(C)cc2n1Cc1ccccc1 | 800 |  |  | 125 | 200 |  |  |  | 75 | 50 |
